Test results published in US20200079758A1, “[4-(PHENYLSULFONYL)PIPERAZIN-1-YL](1H-1,2,3-TRIAZOL-4-YL)METHANONES” (priority 2016, published 2020).

Each compound was assayed against T1, recombinant human AKR1C3 (Homo sapiens, UniProt P42330) (assay: AKR1C3-inhibitory activity assay (generation of Coumberol from Coumberone)). Conditions: Coumberone 0.3 μM, NADPH 10 μM, 22° C., typically 90 min, average or median values.
T1 construct: GST (cleaved yes); made in house; host or cells: E. coli
T1 sequence (P42330 1-323): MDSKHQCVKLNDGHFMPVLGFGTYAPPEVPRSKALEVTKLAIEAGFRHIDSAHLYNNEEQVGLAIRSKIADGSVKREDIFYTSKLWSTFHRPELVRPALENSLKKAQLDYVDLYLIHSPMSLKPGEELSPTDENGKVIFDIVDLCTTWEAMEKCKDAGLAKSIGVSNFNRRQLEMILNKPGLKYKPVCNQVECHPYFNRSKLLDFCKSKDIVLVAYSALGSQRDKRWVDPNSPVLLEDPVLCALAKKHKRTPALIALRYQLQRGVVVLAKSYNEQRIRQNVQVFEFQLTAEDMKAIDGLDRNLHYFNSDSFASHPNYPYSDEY
Format: biochemical
Procedure: The AKR1C3-inhibitory activity of the substances of the present invention was measured in the AKR1C3 assay described in the paragraphs below.
Essentially, the enzyme activity is measured by quantification of the generation of Coumberol from Coumberone (Halim et al. J. AM. CHEM. SOC. 2008, 130:14123-14128 and Yee et al. Proc. Natl. Acad. Sci. USA 2006, 103:13304-13309). In this test, the increase of the highly fluorescent Coumberol by NADPH- (nicotinamide adenine dinucleotide phosphate)-dependent reduction of the non-fluorescent Coumberone by AKR1C3 was determined.
The enzyme used was recombinant human AKR1C3 (Aldo-keto reductase family 1 member C3; GenBank Accession No. NM_003739). This was expressed in E. coli as GST (glutathione S transferase) fusion protein and purified by glutathione Sepharose affinity chromatography. The GST was removed by digestion with thrombin and subsequent size exclusion chromatography (Dufort, I., Rheault, P., Huang, X F., Soucy, P., and Luu-The, V., Endocrinology 140, 568-574 (1999)).
For the assay, 50 nl of a 100-fold concentrated solution of the test substance in DMSO were pipetted into a black low-volume 384-well microtiter plate (Greiner Bio-One, Frickenhausen, Germany), 2.5 μl of a solution of AKR1C3 in assay buffer [50 mM potassium phosphate buffer pH 7, 1 mM DTT, 0.0022% (w/v) Pluronic F-127, 0.01% BSA (w/v) and protease inhibitor cocktail (Complete, EDTA-free Protease Inhibitor Cocktail from Roche)] were added and the mixture was incubated for 15 min to allow pre-binding of the substances to the enzyme prior to the enzyme reaction. The enzyme reaction was then started by addition of 2.5 μl of a solution of NADPH (20 μM→final concentration in 5 μl of assay volume is 10 μM) and Coumberone (0.6 μM→final concentration in 5 μl of assay volume is 0.3 μM) in assay buffer, and the resulting mixture was incubated at 22° C. for the reaction time of typically 90 min. The concentration of the AKR1C3 and the reaction time was adapted to the respective activity of the enzyme preparation and adjusted such that the assay was carried out in the linear range. Typical AKR1C3 concentrations were in the region of 1 nM. The reaction was stopped by addition of 2.5 μl of a stop solution consisting of 3 μM EM-1404 as inhibitor (U.S. Pat. No. 6,541,463) in 50 mM HEPES pH7.5 (3 μM EM-1404→final concentration in 7.5 μl of assay volume is 1 μM). The fluorescence of the Coumberole was then measured at 520 nm (excitation at 380 nm) using a suitable measuring instrument (Pherastar from BMG Labtechnologies). The intensity of the fluorescence was used as a measure of the amount of Coumberole formed and thus of the enzyme activity of AKR1C3. The data were normalized (enzyme reaction without inhibitor=0% inhibition; all other assay components, but no enzyme=100% inhibition).

SMILES	IC50 [nM]
CC1(C)CN(C(=O)c2c[nH]nn2)CCN1S(=O)(=O)c1cc(F)cc(F)c1 [Example 29, {4-[(3,5-difluorophenyl)sulfonyl]-3,3-dimethylpiperazin-1-yl}(1H-1,2,3-triazol-4-yl)methanone]	11
CC1(C)CN(C(=O)c2cnn[nH]2)CCN1S(=O)(=O)c1ccc(F)cc1 [Example 30, {4-[(4-fluorophenyl)sulfonyl]-3,3-dimethylpiperazin-1-yl}(1H-1,2,3-triazol-5-yl)methanone]	71
Cc1ccccc1S(=O)(=O)N1CCN(C(=O)c2cnn[nH]2)CC1(C)C [Example 31, {3,3-dimethyl-4-[(2-methylphenyl)sulfonyl]piperazin-1-yl}(1H-1,2,3-triazol-5-yl)methanone]	5
CC1(C)CN(C(=O)c2cnn[nH]2)CCN1S(=O)(=O)c1ccccc1Cl [Example 32, {4-[(2-chlorophenyl)sulfonyl]-3,3-dimethylpiperazin-1-yl}(1H-1,2,3-triazol-5-yl)methanone]	15
Cc1cccc(S(=O)(=O)N2CCN(C(=O)c3cnn[nH]3)CC2(C)C)c1 [Example 33, {3,3-dimethyl-4-[(3-methylphenyl)sulfonyl]piperazin-1-yl}(1H-1,2,3-triazol-5-yl)methanone]	10
CC1(C)CN(C(=O)c2cnn[nH]2)CCN1S(=O)(=O)c1ccccc1F [Example 34, {4-[(2-fluorophenyl)sulfonyl]-3,3-dimethylpiperazin-1-yl}(1H-1,2,3-triazol-5-yl)methanone]	16
CC1(C)CN(C(=O)c2cnn[nH]2)CCN1S(=O)(=O)c1c(F)cccc1F [Example 35, {4-[(2,6-difluorophenyl)sulfonyl]-3,3-dimethylpiperazin-1-yl}(1H-1,2,3-triazol-5-yl)methanone]	46
CC1(C)CN(C(=O)c2cnn[nH]2)CCN1S(=O)(=O)c1ccc(F)c(F)c1 [Example 36, {4-[(3,4-difluorophenyl)sulfonyl]-3,3-dimethylpiperazin-1-yl}(1H-1,2,3-triazol-5-yl)methanone]	26
CC1(C)CN(C(=O)c2cnn[nH]2)CCN1S(=O)(=O)c1cc(F)ccc1F [Example 37, {4-[(2,5-difluorophenyl)sulfonyl]-3,3-dimethylpiperazin-1-yl}(1H-1,2,3-triazol-5-yl)methanone]	8
C[C@@H]1CN(C(=O)c2c[nH]nn2)C[C@H](C)N1S(=O)(=O)c1ccccc1 [Example 38, [(3R,5S)-3,5-dimethyl-4-(phenylsulfonyl)piperazin-1-yl](1H-1,2,3-triazol-4-yl)methanone]	14
C[C@@H]1CN(C(=O)c2cnn[nH]2)C[C@H](C)N1S(=O)(=O)c1cccc(Cl)c1 [Example 39, {(3R,5S)-4-[(3-chlorophenyl)sulfonyl]-3,5-dimethylpiperazin-1-yl}(1H-1,2,3-triazol-5-yl)methanone]	3
C[C@@H]1CN(C(=O)c2cnn[nH]2)C[C@H](C)N1S(=O)(=O)c1cc(Cl)cc(Cl)c1 [Example 40, {(3R,5S)-4-[(3,5-dichlorophenyl)sulfonyl]-3,5-dimethylpiperazin-1-yl}(1H-1,2,3-triazol-5-yl)methanone]	2
C[C@@H]1CN(C(=O)c2cnn[nH]2)C[C@H](C)N1S(=O)(=O)c1cccc(F)c1 [Example 41, {(3R,5S)-4-[(3-fluorophenyl)sulfonyl]-3,5-dimethylpiperazin-1-yl}(1H-1,2,3-triazol-5-yl)methanone]	9
C[C@@H]1CN(C(=O)c2cnn[nH]2)C[C@H](C)N1S(=O)(=O)c1cc(F)cc(F)c1 [Example 42, {(3R,5S)-4-[(3,5-difluorophenyl)sulfonyl]-3,5-dimethylpiperazin-1-yl}(1H-1,2,3-triazol-5-yl)methanone]	9
C[C@@H]1CN(S(=O)(=O)c2cc(Cl)ccc2Cl)C[C@H](C)N1C(=O)c1c[nH]nn1 [Example 43, {(2R,6S)-4-[(2,5-dichlorophenyl)sulfonyl]-2,6-dimethylpiperazin-1-yl}(1H-1,2,3-triazol-4-yl)methanone]	2
C[C@@H]1CN(S(=O)(=O)c2ccc(F)cc2)C[C@H](C)N1C(=O)c1c[nH]nn1 [Example 44, {(2R,6S)-4-[(4-fluorophenyl)sulfonyl]-2,6-dimethylpiperazin-1-yl}(1H-1,2,3-triazol-4-yl)methanone]	48
Cc1ccccc1S(=O)(=O)N1C[C@@H](C)N(C(=O)c2c[nH]nn2)[C@@H](C)C1 [Example 45, {(2R,6S)-2,6-dimethyl-4-[(2-methylphenyl)sulfonyl]piperazin-1-yl}(1H-1,2,3-triazol-4-yl)methanone]	1
C[C@@H]1CN(S(=O)(=O)c2ccccc2Cl)C[C@H](C)N1C(=O)c1c[nH]nn1 [Example 46, {(2R,6S)-4-[(2-chlorophenyl)sulfonyl]-2,6-dimethylpiperazin-1-yl}(1H-1,2,3-triazol-4-yl)methanone]	2
C[C@@H]1CN(S(=O)(=O)c2ccccc2C(F)(F)F)C[C@H](C)N1C(=O)c1c[nH]nn1 [Example 47, [(2R,6S)-2,6-dimethyl-4-{[2-(trifluoromethyl)phenyl]sulfonyl}piperazin-1-yl](1H-1,2,3-triazol-4-yl)methanone]	2
C[C@@H]1CN(S(=O)(=O)c2cccc(Cl)c2)C[C@H](C)N1C(=O)c1c[nH]nn1 [Example 48, {(2R,6S)-4-[(3-chlorophenyl)sulfonyl]-2,6-dimethylpiperazin-1-yl}(1H-1,2,3-triazol-4-yl)methanone]	3
Cc1cccc(S(=O)(=O)N2C[C@@H](C)N(C(=O)c3c[nH]nn3)[C@@H](C)C2)c1 [Example 49, {(2R,6S)-2,6-dimethyl-4-[(3-methylphenyl)sulfonyl]piperazin-1-yl}(1H-1,2,3-triazol-4-yl)methanone]	6
C[C@@H]1CN(S(=O)(=O)c2cccc(Br)c2)C[C@H](C)N1C(=O)c1c[nH]nn1 [Example 50, {(2R,6S)-4-[(3-bromophenyl)sulfonyl]-2,6-dimethylpiperazin-1-yl}(1H-1,2,3-triazol-4-yl)methanone]	3
C[C@@H]1CN(S(=O)(=O)c2ccccc2F)C[C@H](C)N1C(=O)c1c[nH]nn1 [Example 51, {(2R,6S)-4-[(2-fluorophenyl)sulfonyl]-2,6-dimethylpiperazin-1-yl}(1H-1,2,3-triazol-4-yl)methanone]	6
C[C@@H]1CN(S(=O)(=O)c2cccc(F)c2)C[C@H](C)N1C(=O)c1c[nH]nn1 [Example 52, {(2R,6S)-4-[(3-fluorophenyl)sulfonyl]-2,6-dimethylpiperazin-1-yl}(1H-1,2,3-triazol-4-yl)methanone]	9
C[C@@H]1CN(S(=O)(=O)c2c(F)cccc2F)C[C@H](C)N1C(=O)c1c[nH]nn1 [Example 53, {(2R,6S)-4-[(2,6-difluorophenyl)sulfonyl]-2,6-dimethylpiperazin-1-yl}(1H-1,2,3-triazol-4-yl)methanone]	9
C[C@@H]1CN(S(=O)(=O)c2cccc(C#N)c2)C[C@H](C)N1C(=O)c1c[nH]nn1 [Example 54, 3-{[(3R,5S)-3,5-dimethyl-4-(1H-1,2,3-triazol-4-ylcarbonyl)piperazin-1-yl]sulfonyl}benzonitrile]	118
C[C@@H]1CN(S(=O)(=O)c2cccc(Cl)c2F)C[C@H](C)N1C(=O)c1c[nH]nn1 [Example 55, {(2R,6S)-4-[(3-chloro-2-fluorophenyl)sulfonyl]-2,6-dimethylpiperazin-1-yl}(1H-1,2,3-triazol-4-yl)methanone]	10
